Experimental data reported in PMC9599461, “Stereoselectivity in the Membrane Transport of Phenylethylamine Derivatives by Human Monoamine Transporters and Organic Cation Transporters 1, 2, and 3” (Biomolecules, 2022).
Like-named read-outs stand apart in the source and are kept apart here.

Columns and labels:
NET = NET (Homo sapiens, UniProt P23975); experiment: Stereoselective uptake into NET-overexpressing HEK293 cells; settings: for Clint ± SEM: quotient of vmax over Km; for Stereoselectivity Vmax / Stereoselectivity Km: ratio between enantiomers; for Stereoselectivity Vmax: given as for (R) or for 1; for selectivity ratio at 2 min: human;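 as to all read-outs here: intracellular enantiomers quantified in cell lysates by chiral HPLC-MS/MS after a 2 min substrate incubation, with uptake normalized to total cellular protein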
Chain of NET (P23975 whole entry): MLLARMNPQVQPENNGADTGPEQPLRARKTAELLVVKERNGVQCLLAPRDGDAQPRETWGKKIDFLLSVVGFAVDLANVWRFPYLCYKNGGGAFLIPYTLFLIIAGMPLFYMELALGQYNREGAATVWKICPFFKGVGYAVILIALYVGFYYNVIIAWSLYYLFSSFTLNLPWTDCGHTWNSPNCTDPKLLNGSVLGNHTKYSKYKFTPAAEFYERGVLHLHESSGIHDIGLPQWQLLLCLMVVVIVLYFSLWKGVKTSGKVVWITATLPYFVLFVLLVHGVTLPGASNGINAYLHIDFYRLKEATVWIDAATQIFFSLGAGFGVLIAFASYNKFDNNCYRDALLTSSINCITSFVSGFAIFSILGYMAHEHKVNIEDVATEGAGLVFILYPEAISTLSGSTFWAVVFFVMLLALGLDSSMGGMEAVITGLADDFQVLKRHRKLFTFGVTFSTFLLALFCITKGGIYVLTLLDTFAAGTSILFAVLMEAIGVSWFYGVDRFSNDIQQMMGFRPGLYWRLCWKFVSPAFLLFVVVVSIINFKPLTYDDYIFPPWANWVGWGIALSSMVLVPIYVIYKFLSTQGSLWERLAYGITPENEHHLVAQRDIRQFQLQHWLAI
Method: (§1) All transport experiments were carried out in HEK293 cells stably overexpressing human MATs or OCTs. […] All cells were regularly cultivated in DMEM supplemented with 10% (v/v) FCS, penicillin (100 U/mL) and streptomycin (100 μg/mL)and kept in culture for no longer than 30 passages.
(§2) For the uptake experiments, 300,000 cells were plated in poly-D-lysine precoated 24-well plates 48 h ahead of the transport experiment. On the day of experiment, cells were initially washed once with 37 °C pre-warmed HBSS+ (Hanks buffered salt solution supplemented with 10 mM HEPES) and subsequently incubated with the substrates dissolved in pre-warmed HBSS+ for exactly two minutes. Incubation was stopped by adding ice-cold HBSS+ followed by two washing steps. After this, cells were lysed with 80% acetonitrile containing 10 ng/mL milnacipran as internal standard for high-performance liquid chromatography coupled to tandem mass spectrometry (HPLC-MS/MS) analysis. For every experiment, two additional wells per cell line were lysed using RIPA buffer for protein quantification. Total protein was quantified using the bicinchoninic acid assay [42]. This was later used for normalization of the uptake data.
(§3) Intracellularly accumulated test substances were quantified by HPLC-MS/MS analysis using a Shimadzu Nexera HPLC system with a SIL-30AC autosampler, a CTO-20AC column oven, a LC-30AD pump, and a CBM-20A controller (Shimadzu, Kyoto, Japan). Stereoselective chromatography was carried out on a [sequence] CBH HPLC column (100 × 3 mm inner dimension with 5 μM particle size; Sigma-Aldrich, Darmstadt, Germany) with a corresponding 10 × 3 mm guard column. Reversed phased chromatography was carried out using an ammonium acetate (NH4Ac) buffered aqueous mobile phase with isopropyl alcohol (IPA) as organic solvent. […] The order of elution of the enantiomers was obtained from available reference literature [43] or by applying enantiopure reference compounds to the chiral HPLC. […] Given the structural similarity of the investigated substances and the fact that separation was performed on the same column with almost identical mobile phases, we assume that this order of elution for our compound set is always the (R)- before the (S)-enantiomer.
(§4) Detection was performed with an API 4000 tandem mass spectrometer (AB SCIEX, Darmstadt, Germany) operating in multiple-reaction-monitoring mode. Quantification was performed using the Analyst 1.6.2 software (AB SCIEX, Darmstadt, Germany) and quantified by comparison to standard curves with known concentrations.
(§5) All uptake data were normalized to protein content to account for variation in the number of seeded sells. Transporter-mediated net uptake was calculated by subtracting uptake into empty vector-transfected control cells from uptake into transporter-transfected cells. Kinetic parameters were then determined after non-linear regression following the Michaelis–Menten equation (v = vmax × [S]/(Km + [S])) using GraphPad Prism (Version 5.01 for Windows, GraphPad Software, La Jolla, CA, USA). Vmax refers to the maximum transport velocity and Km is defined as the substance concentration required to reach half of vmax. The intrinsic clearance Clint was calculated as the quotient of vmax over Km.

[1] = tested on: OCT2 wild-type versus A270S variant; experiment: in vitro; settings: human, Transporter selectivity, OCT2 wild-type versus A270S, 100 μM racemic substance, two minutes
Method: as §1, §2
(§6) Intracellularly accumulated test substances were quantified by HPLC-MS/MS analysis using a Shimadzu Nexera HPLC system with a SIL-30AC autosampler, a CTO-20AC column oven, a LC-30AD pump, and a CBM-20A controller (Shimadzu, Kyoto, Japan). Stereoselective chromatography was carried out on a [sequence] CBH HPLC column (100 × 3 mm inner dimension with 5 μM particle size; Sigma-Aldrich, Darmstadt, Germany) with a corresponding 10 × 3 mm guard column. Reversed phased chromatography was carried out using an ammonium acetate (NH4Ac) buffered aqueous mobile phase with isopropyl alcohol (IPA) as organic solvent. […] The order of elution of the enantiomers was obtained from available reference literature [43] or by applying enantiopure reference compounds to the chiral HPLC. […] However, in every other case where the order of elution was available, the (R)-enantiomer eluted first. Given the structural similarity of the investigated substances and the fact that separation was performed on the same column with almost identical mobile phases, we assume that this order of elution for our compound set is always the (R)- before the (S)-enantiomer.
as §4, §5
(§7) HEK293 cells stably overexpressing wild-type or mutant OCT2 were incubated with 100 μM racemic substance for two minutes.

OCT2 A270S variant = experiment: Stereoselective uptake into OCT2 A270S variant-overexpressing HEK293 cells; settings: 100 μM racemic substance, two minutes;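 also: uptake into HEK293 cells stably overexpressing human OCT2 variants, intracellular enantiomers quantified by chiral HPLC-MS/MS and normalized to total protein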
Method: as §1, §2, §6, §4, §5, §7

OCT1 = target: T1, OCT1 (Homo sapiens, UniProt O15245); experiment: Stereoselective uptake into OCT1-overexpressing HEK293 cells; settings: for Clint ± SEM: quotient of vmax over Km; for selectivity ratio at 2 min: human;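 as to all read-outs here: enantiomers quantified inside cells by chiral HPLC-MS/MS, uptake normalized to total protein from bicinchoninic acid assay, substrates applied in HBSS+ buffer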
T1 sequence (O15245 1-554): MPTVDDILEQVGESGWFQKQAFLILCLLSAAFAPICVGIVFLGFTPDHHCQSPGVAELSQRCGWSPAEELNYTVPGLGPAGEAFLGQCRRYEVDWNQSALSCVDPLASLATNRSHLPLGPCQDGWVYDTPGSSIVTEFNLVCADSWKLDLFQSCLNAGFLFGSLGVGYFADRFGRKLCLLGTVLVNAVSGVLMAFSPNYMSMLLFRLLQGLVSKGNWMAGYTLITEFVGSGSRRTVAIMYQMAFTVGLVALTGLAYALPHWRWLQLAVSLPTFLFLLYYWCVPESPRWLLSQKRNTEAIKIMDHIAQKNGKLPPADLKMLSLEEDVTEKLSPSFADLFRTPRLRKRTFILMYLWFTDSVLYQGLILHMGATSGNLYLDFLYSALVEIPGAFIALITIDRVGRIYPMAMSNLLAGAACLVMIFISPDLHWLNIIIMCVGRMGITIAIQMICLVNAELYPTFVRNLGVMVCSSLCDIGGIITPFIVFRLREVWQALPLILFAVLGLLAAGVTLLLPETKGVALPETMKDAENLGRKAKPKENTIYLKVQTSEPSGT

OCT3 = target: T2, OCT3 (Homo sapiens, UniProt O75751); experiment: Stereoselective uptake into OCT3-overexpressing HEK293 cells; settings: for Clint ± SEM / Stereoselectivity Vmax / Stereoselectivity Km: OCT3; for Clint ± SEM: quotient of vmax over Km; for Stereoselectivity Vmax / Stereoselectivity Km: ratio between enantiomers; for Stereoselectivity Vmax: given as for (R) or for 1; for Stereoselectivity Km: given as for (R) or for 1 (first-eluting); for selectivity ratio at 2 min: human;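 as to all read-outs here: intracellular accumulation in HEK293 cells measured by chiral HPLC-MS/MS after a 2 min substrate exposure at 37 °C, uptake normalized to total protein (bicinchoninic acid assay)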
T2 sequence (O75751 1-556): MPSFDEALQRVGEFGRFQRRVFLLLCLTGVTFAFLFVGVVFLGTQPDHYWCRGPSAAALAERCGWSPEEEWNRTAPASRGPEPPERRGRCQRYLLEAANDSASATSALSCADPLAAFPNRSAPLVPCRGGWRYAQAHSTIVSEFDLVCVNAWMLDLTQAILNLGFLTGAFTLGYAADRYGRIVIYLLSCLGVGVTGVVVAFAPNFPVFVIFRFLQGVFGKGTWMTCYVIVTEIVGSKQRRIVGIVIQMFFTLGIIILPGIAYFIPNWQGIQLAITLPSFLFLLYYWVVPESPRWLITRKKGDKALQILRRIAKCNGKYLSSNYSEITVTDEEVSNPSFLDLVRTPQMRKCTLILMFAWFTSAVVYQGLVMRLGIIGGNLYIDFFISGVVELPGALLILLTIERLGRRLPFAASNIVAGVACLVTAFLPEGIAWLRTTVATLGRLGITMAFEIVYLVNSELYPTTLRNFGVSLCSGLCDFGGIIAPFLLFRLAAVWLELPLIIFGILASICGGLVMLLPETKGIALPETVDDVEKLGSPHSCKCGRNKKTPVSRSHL

SERT [2] = target: T3, SERT (Homo sapiens, UniProt P31645); experiment: Stereoselective uptake into SERT-overexpressing HEK293 cells; settings: for Clint ± SEM: quotient of vmax over Km;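 as to all read-outs here: uptake into HEK293 cells stably expressing human SERT over 2 min, enantiomers measured in cell lysate by chiral HPLC-MS/MS, normalized to total protein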
T3 sequence (P31645 whole entry): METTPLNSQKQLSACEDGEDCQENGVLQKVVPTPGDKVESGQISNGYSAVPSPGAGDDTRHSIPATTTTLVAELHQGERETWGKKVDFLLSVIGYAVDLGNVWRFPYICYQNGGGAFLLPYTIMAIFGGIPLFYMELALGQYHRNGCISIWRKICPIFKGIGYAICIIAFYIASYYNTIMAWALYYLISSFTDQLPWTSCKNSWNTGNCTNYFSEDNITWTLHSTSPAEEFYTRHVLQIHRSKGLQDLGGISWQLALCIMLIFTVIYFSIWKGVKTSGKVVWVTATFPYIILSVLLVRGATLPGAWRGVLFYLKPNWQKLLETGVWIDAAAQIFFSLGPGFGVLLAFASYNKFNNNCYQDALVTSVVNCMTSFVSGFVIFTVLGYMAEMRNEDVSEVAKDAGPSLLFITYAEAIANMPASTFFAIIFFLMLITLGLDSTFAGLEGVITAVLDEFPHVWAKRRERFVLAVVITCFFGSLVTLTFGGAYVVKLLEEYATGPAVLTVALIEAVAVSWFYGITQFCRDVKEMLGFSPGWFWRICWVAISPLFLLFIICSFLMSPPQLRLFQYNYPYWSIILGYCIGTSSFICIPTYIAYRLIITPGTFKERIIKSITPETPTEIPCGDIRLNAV
Method: as §1, §2
(§8) Intracellularly accumulated test substances were quantified by HPLC-MS/MS analysis using a Shimadzu Nexera HPLC system with a SIL-30AC autosampler, a CTO-20AC column oven, a LC-30AD pump, and a CBM-20A controller (Shimadzu, Kyoto, Japan). […] CBH HPLC column (100 × 3 mm inner dimension with 5 μM particle size; Sigma-Aldrich, Darmstadt, Germany) with a corresponding 10 × 3 mm guard column. Reversed phased chromatography was carried out using an ammonium acetate (NH4Ac) buffered aqueous mobile phase with isopropyl alcohol (IPA) as organic solvent. […] The order of elution of the enantiomers was obtained from available reference literature [43] or by applying enantiopure reference compounds to the chiral HPLC.
as §4
(§9) All uptake data were normalized to protein content to account for variation in the number of seeded sells. Transporter-mediated net uptake was calculated by subtracting uptake into empty vector-transfected control cells from uptake into transporter-transfected cells. […] Vmax refers to the maximum transport velocity and Km is defined as the substance concentration required to reach half of vmax. The intrinsic clearance Clint was calculated as the quotient of vmax over Km.

OCT2 [3] = target: T4, OCT2 (Homo sapiens, UniProt O15244); experiment: Stereoselective uptake into OCT2 (wild-type)-overexpressing HEK293 cells; settings: for Clint ± SEM / selectivity ratio at 2 min: OCT2; for Clint ± SEM: quotient of vmax over Km; for selectivity ratio at 2 min: human, ratio between enantiomers
T4 sequence (O15244 1-555 S270A): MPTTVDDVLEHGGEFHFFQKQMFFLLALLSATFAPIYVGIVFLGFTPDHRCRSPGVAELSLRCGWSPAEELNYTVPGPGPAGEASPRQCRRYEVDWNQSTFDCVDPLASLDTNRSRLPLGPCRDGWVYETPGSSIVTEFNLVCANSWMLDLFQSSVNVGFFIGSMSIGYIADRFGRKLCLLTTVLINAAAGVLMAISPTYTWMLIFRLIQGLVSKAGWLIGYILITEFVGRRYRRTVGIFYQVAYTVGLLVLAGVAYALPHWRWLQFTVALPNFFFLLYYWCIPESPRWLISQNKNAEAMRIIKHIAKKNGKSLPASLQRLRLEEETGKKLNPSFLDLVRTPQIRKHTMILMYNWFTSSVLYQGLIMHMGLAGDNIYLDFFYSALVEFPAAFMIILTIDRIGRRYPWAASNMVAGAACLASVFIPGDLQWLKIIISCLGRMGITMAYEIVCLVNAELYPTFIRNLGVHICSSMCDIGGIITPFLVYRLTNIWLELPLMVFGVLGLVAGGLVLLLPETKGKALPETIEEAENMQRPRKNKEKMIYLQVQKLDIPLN

DAT = DAT (Homo sapiens, UniProt Q01959); experiment: Stereoselective uptake into DAT-overexpressing HEK293 cells; settings: for Saturable net uptake / Clint ± SEM / Stereoselectivity Vmax / Stereoselectivity Km: DAT; for Saturable net uptake: result in words; for Clint ± SEM: quotient of vmax over Km; for Stereoselectivity Vmax / Stereoselectivity Km: ratio between enantiomers; for Stereoselectivity Vmax: given as for (R) or for 1; for Stereoselectivity Km: given as for (S) or for 2 (second-eluting); for selectivity ratio at 2 min: human;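 as to all read-outs here: intracellular accumulation measured by chiral HPLC-MS/MS in stably transfected HEK293 cells, normalized to total protein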
Chain of DAT (Q01959 whole entry): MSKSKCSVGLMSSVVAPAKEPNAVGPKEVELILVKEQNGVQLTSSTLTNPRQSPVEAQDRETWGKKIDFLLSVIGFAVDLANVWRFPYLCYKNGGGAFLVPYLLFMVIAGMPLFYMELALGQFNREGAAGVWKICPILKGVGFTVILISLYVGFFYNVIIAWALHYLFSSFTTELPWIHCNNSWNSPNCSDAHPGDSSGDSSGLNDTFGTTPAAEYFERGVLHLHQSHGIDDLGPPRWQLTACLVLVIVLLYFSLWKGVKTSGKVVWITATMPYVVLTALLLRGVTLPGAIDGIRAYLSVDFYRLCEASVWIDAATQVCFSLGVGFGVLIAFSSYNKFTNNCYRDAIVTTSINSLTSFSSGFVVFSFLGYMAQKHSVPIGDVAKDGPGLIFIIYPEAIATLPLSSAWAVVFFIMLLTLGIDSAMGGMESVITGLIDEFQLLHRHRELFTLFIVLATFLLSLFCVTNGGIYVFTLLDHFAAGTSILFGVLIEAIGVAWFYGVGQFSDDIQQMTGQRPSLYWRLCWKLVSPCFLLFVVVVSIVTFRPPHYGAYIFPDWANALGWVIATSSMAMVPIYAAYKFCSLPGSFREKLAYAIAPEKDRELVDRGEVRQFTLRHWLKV
Method: as §1, §2, §3, §4, §5

SERT [4] = target: T3, SERT; experiment: in vitro
Method: as §1, §2, §8, §4, §9

OCT2 [5] = target: T5, OCT2 (Homo sapiens, UniProt O15244, S270A); experiment: Stereoselective uptake into OCT2 (wild-type)-overexpressing HEK293 cells; settings: OCT2, ratio between enantiomers
T5 sequence (O15244 1-555 S270A): T4 sequence (O15244 1-555 S270A)

[6] = Stereoselectivity Km, OCT1, ratio between enantiomers, given as for (S) or for 2 (second-eluting)
[7] = Stereoselectivity Vmax, OCT1, ratio between enantiomers, given as for (R) or for 1
[8] = Stereoselectivity Vmax, given as for (R) or for 1
[9] = SERT, ratio between enantiomers, given as for (S) or for 2
[10] = NET, given as for (S) or for 2 (second-eluting)
[11] = Stereoselectivity ClInt, OCT1, ratio between enantiomers, given as for (R) or for 1 (also 1.00-fold for 1/2)
[12] = SERT, ratio between enantiomers, given as for (S) or for 2 (second-eluting)
[13] = Stereoselectivity ClInt, given as for (S) or for 2
[14] = Stereoselectivity Km, given as for (R) or for 1 (first-eluting)

Row | SMILES | Clint ± SEM (OCT1; OCT1) | selectivity ratio at 2 min (OCT1; [6]) | selectivity ratio at 2 min (OCT1; [7]) | Clint ± SEM (OCT3) | Stereoselectivity Vmax (OCT3) [fold] | Stereoselectivity Km (OCT3) [fold] | selectivity ratio at 2 min (OCT3) | Clint ± SEM (SERT [2]; SERT) | Clint ± SEM (OCT2 [3]) | selectivity ratio at 2 min (OCT2 [3]; [8]) | Saturable net uptake (DAT) | selectivity ratio (SERT [4]) | Clint ± SEM (NET; NET) | Stereoselectivity Vmax (NET; NET) [fold] | selectivity ratio at 2 min (NET) | selectivity ratio at 2 min, 100 μM ([1]; given as for WT) | Stereoselectivity Vmax (SERT [2]; [9]) [fold] | Stereoselectivity Km (NET; [10]) [fold] | selectivity ratio at 2 min (OCT1; [11]) | Stereoselectivity Km (SERT [2]; [12]) [fold] | other results
1 | CNCC(O)c1ccc(O)c(OC)c1 (single isomer, unassigned) [Metanephrine-1, Metanephrine] | 8.09 mL × g Protein^−1 × min^−1 | 1.09 | 1.06 | 25.9 mL × g Protein^−1 × min^−1 | 1.19 | 1.19 | 1 | 0.58 mL × g Protein^−1 × min^−1 | 20.6 mL × g Protein^−1 × min^−1 | 2.13 | No saturable net uptake | 1.01 |  |  |  |  |  |  |  |  | Saturable net uptake (NET; NET, result in words): No saturable net uptake; selectivity ratio at 2 min, 100 μM ([1]; given as for A270S): 1.2; Net uptake by A270S variant in comparison to the wild-type (OCT2 A270S variant): 120%; Vmax ± SEM (OCT1; HEK293 cells overexpressing human OCT1, racemic substrate, two minutes, net uptake): 1082 pmol × mg Protein^−1 × min^−1; selectivity ratio at 2 min (OCT1; Stereoselectivity ClInt): 1.16; Stereoselectivity Km (SERT [2]): 1.09 fold; Stereoselectivity Vmax (SERT [2]): 1.08 fold; Vmax ± SEM (OCT2 [3]; HEK293 cells overexpressing human OCT2, racemic substrate, two minutes, net uptake): 1127 pmol × mg Protein^−1 × min^−1; selectivity ratio at 2 min (OCT2 [3]; Stereoselectivity ClInt, given as for (R) or for 1): 2.66; selectivity ratio at 2 min (OCT2 [3]; Stereoselectivity Km, given as for (S) or for 2 (second-eluting)): 1.25
2 | COc1cc(C(O)CN)ccc1O (single isomer, unassigned) [Normetanephrine-1, Normetanephrine] | 2.46 mL × g Protein^−1 × min^−1 |  |  | 19.4 mL × g Protein^−1 × min^−1 | 1.09 | 1.22 | 1.12 | 2.23 mL × g Protein^−1 × min^−1 | 9.24 mL × g Protein^−1 × min^−1 |  | No saturable net uptake | 1.28 | 2.71 mL × g Protein^−1 × min^−1 | 1.06 | 1.28 | 1.21 | 1.67 |  |  |  | Stereoselectivity Km (NET; NET, given as for (R) or for 1 (first-eluting)): 1.35 fold; Stereoselectivity Vmax (OCT1; OCT1, ratio between enantiomers, given as for (R) or for 1): 1.47 fold; Stereoselectivity Km (OCT1; OCT1, ratio between enantiomers, given as for (R) or for 1 (first-eluting)): 1.59 fold; Stereoselectivity ClInt (OCT1; OCT1, ratio between enantiomers, given as for (S) or for 2): 1.08 fold; Stereoselectivity Km (SERT [2]; SERT, ratio between enantiomers, given as for (R) or for 1 (first-eluting)): 1.08 fold; Stereoselectivity ClInt (OCT2 [5]; given as for (R) or for 1): 1.56 fold; Stereoselectivity Km (OCT2 [5]; given as for (R) or for 1 (first-eluting)): 1.32 fold; Stereoselectivity Vmax (OCT2 [5]; given as for (S) or for 2): 2.06 fold
3 | CNC[C@H](O)c1ccc(O)cc1 [(R)-Synephrine] | 21.0 mL × g Protein^−1 × min^−1 | 1.28 | 1.35 | 26.3 mL × g Protein^−1 × min^−1 | 1.05 | 1.11 | 1.06 | 0.69 mL × g Protein^−1 × min^−1 | 24.6 mL × g Protein^−1 × min^−1 | 2.05 |  | 1.13 | 37.3 mL × g Protein^−1 × min^−1 | 1.80 | 4.7 | 1.41 | 1.35 | 2.61 | 1.73 | 1.52 | selectivity ratio at 2 min (OCT2 [3]; [13]): 1.01; selectivity ratio at 2 min (OCT2 [3]; [14]): 2.07; Clint ± SEM (DAT): 23.1 mL × g Protein^−1 × min^−1; Stereoselectivity Vmax (DAT): 1.84 fold; Stereoselectivity Km (DAT): 1.21 fold; selectivity ratio at 2 min (DAT): 2.23
4 | CNC[C@@H](O)c1ccc(O)cc1 [(S)-Synephrine] | 12.1 mL × g Protein^−1 × min^−1 | 1.28 | 1.35 | 27.8 mL × g Protein^−1 × min^−1 | 1.05 | 1.11 | 1.06 | 0.61 mL × g Protein^−1 × min^−1 | 24.8 mL × g Protein^−1 × min^−1 | 2.05 |  | 1.13 | 7.92 mL × g Protein^−1 × min^−1 | 1.80 | 4.7 | 1.2 | 1.35 | 2.61 | 1.73 | 1.52 | selectivity ratio at 2 min (OCT2 [3]; [13]): 1.01; selectivity ratio at 2 min (OCT2 [3]; [14]): 2.07; Clint ± SEM (DAT): 10.4 mL × g Protein^−1 × min^−1; Stereoselectivity Vmax (DAT): 1.84 fold; Stereoselectivity Km (DAT): 1.21 fold; selectivity ratio at 2 min (DAT): 2.23
